Results taken from patent US20060100284A1, “Growth promotor” (priority 2002, published 2006).

Experiments:
[1] = system: weaned pigs and swine grown for pork meat; conditions: Partanen et al. 2002; cited from earlier work
[2] = system: weaned pigs and growing swine; assay: Swine feeding test with feed additives; type: in vivo
Experimental: The composition of the invention was tested using weaned pigs and growing swine. The test comprised a total of 240 swine from 30 different litters. […] The composition of the invention was compared to a control without additives and to an antibiotic feed additive (Avilamycin) at the weaning and growth stage.

slaughter animals = conditions: Kirchgessner et al. 1995; cited from earlier work
[3] = Growth and final growth stage, additive in feed (6 g/kg for acids)
[4] = Weaning stage, additive in feed (8 g/kg for acids)

| Molecule | growth promoter effect in feed [1] | Daily growth [2, 3] | Final weight [2, 3] | Daily growth [2, 4] | Final weight [2, 4] | increase in weight of slaughter animals (slaughter animals) |
| --- | --- | --- | --- | --- | --- | --- |
| O=CO [F, formic acid] | acts as a growth promoter | 869 g/day | 106.0 kg | 308 g/day | 18.5 kg | – |
| C/C=C/C=C/C(=O)O [sorbic acid] | – | – | – | – | – | enhanced |
| avilamycin | – | 845 g/day | 107.1 kg | 335 g/day | 19.3 kg | – |
